Source: US20260262643A1, “HERBICIDAL BENZOXAZINES” (FMC CORPORATION, priority 2022, published 2026)

What was measured:
[1] = tested on: barnyardgrass; experiment: Test C preemergence; assay type: in vivo, Echinochloa crusgalli; conditions: for Barnyardgrass plant response rating: preemergence; for Plant response rating, Barnyardgrass: Preemergence
Summary of the method: (§1)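 Visual injury score, 0–100 (100 = complete control), taken 10 days after treatment relative to untreated controls. Pre: directed spray onto soil over sown seeds. Post: foliar spray at one- to two-leaf stage, 2–10 cm. Solvent/surfactant formulation; loam–sand soil; greenhouse.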

[2] = tested on: blackgrass; experiment: Test C preemergence; assay type: in vivo, Alopecurus myosuroides; conditions: for Blackgrass plant response rating: preemergence; for Plant response rating, Blackgrass: Preemergence
Summary of the method: as §1

[3] = tested on: corn; experiment: Test C preemergence; assay type: in vivo, Zea mays; conditions: for Corn plant response rating: preemergence; for Plant response rating, Corn: Preemergence
Summary of the method: as §1

[4] = tested on: green foxtail; experiment: Test C preemergence; assay type: in vivo, Setaria viridis; conditions: for Foxtail, Green plant response rating: preemergence; for Plant response rating, Foxtail, Green: Preemergence
Summary of the method: as §1

[5] = tested on: kochia; experiment: Test C preemergence; assay type: in vivo, Bassia scoparia; conditions: for Kochia plant response rating: preemergence; for Plant response rating, Kochia: Preemergence
Summary of the method: as §1

[6] = tested on: oat, wild; experiment: Test C preemergence; assay type: in vivo, Avena fatua; conditions: for Oat, Wild plant response rating: preemergence; for Plant response rating, Oat, Wild: Preemergence
Summary of the method: as §1

[7] = tested on: pigweed, palmer; experiment: Test C preemergence; assay type: in vivo, Amaranthus palmeri; conditions: for Pigweed, Palmer plant response rating: preemergence; for Plant response rating, Pigweed, Palmer: Preemergence
Summary of the method: as §1

[8] = tested on: ragweed; experiment: Test C preemergence; assay type: in vivo, Ambrosia artemisiifolia; conditions: for Ragweed plant response rating: preemergence; for Plant response rating, Ragweed: Preemergence
Summary of the method: as §1

[9] = tested on: ryegrass, Italian; experiment: Test C preemergence; assay type: in vivo, Lolium multiflorum; conditions: for Ryegrass, Italian plant response rating: preemergence; for Plant response rating, Ryegrass, Italian: Preemergence
Summary of the method: as §1

[10] = tested on: soybean; experiment: Test C preemergence; assay type: in vivo, Glycine max; conditions: for Soybean plant response rating: preemergence; for Plant response rating, Soybean: Preemergence
Summary of the method: as §1

[11] = tested on: wheat; experiment: Test C preemergence; assay type: in vivo, Triticum aestivum; conditions: for Wheat plant response rating: preemergence; for Plant response rating, Wheat: Preemergence
Summary of the method: as §1

[12] = tested on: barnyardgrass; experiment: Test C postemergence; assay type: in vivo, Echinochloa crusgalli; conditions: 10 days
Summary of the method: as §1

[13] = tested on: blackgrass; experiment: Test C postemergence; assay type: in vivo, Alopecurus myosuroides; conditions: 10 days
Summary of the method: as §1

[14] = tested on: corn; experiment: Test C postemergence; assay type: in vivo, Zea mays; conditions: 10 days
Summary of the method: as §1

[15] = tested on: green foxtail; experiment: Test C postemergence; assay type: in vivo, Setaria viridis; conditions: 10 days
Summary of the method: as §1

[16] = tested on: kochia; experiment: Test C postemergence; assay type: in vivo, Bassia scoparia; conditions: 10 days
Summary of the method: as §1

[17] = tested on: oat, wild; experiment: Test C postemergence; assay type: in vivo, Avena fatua; conditions: 10 days
Summary of the method: as §1

[18] = tested on: pigweed, palmer; experiment: Test C postemergence; assay type: in vivo, Amaranthus palmeri; conditions: 10 days
Summary of the method: as §1

[19] = tested on: ragweed; experiment: Test C postemergence; assay type: in vivo, Ambrosia artemisiifolia; conditions: 10 days
Summary of the method: as §1

[20] = tested on: ryegrass, Italian; experiment: Test C postemergence; assay type: in vivo, Lolium multiflorum; conditions: 10 days
Summary of the method: as §1

[21] = tested on: soybean; experiment: Test C postemergence; assay type: in vivo, Glycine max; conditions: 10 days
Summary of the method: as §1

[22] = tested on: wheat; experiment: Test C postemergence; assay type: in vivo, Triticum aestivum; conditions: 10 days
Summary of the method: as §1

[23] = tested on: galium; experiment: Test C postemergence; assay type: in vivo, Galium aparine; conditions: 10 days
Summary of the method: as §1

[24] = tested on: horseweed; experiment: Test C postemergence; assay type: in vivo, Erigeron canadensis; conditions: 10 days
Summary of the method: as §1

[25] = tested on: barnyardgrass; experiment: Test D flooded paddy test; assay type: in vivo, Echinochloa crus-galli; conditions: 250 g ai/ha, applied to paddy water, visual rating after 13 to 14 days, scale 0 to 100 (0 no effect, 100 complete control)
Summary of the method: (§2)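 2-leaf plants; flood 3 cm above soil; compound dosed into paddy water; greenhouse 13–14 d; visual rating vs controls, 0–100 (100 = complete control); dash = not tested.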

[26] = tested on: ducksalad; experiment: Test D flooded paddy test; assay type: in vivo, Heteranthera limosa; conditions: 250 g ai/ha, applied to paddy water, visual rating after 13 to 14 days, scale 0 to 100 (0 no effect, 100 complete control)
Summary of the method: as §2

[27] = tested on: rice; experiment: Test D flooded paddy test; assay type: in vivo, Oryza sativa; conditions: 250 g ai/ha, applied to paddy water, visual rating after 13 to 14 days, scale 0 to 100 (0 no effect, 100 complete control)
Summary of the method: as §2

[28] = tested on: sedge, umbrella; experiment: Test D flooded paddy test; assay type: in vivo, Cyperus difformis; conditions: 250 g ai/ha, applied to paddy water, visual rating after 13 to 14 days, scale 0 to 100 (0 no effect, 100 complete control)
Summary of the method: as §2

[29] = 500 g ai/ha, 0 to 100 scale (0 no effect, 100 complete control)
[30] = 125 g ai/ha, 0 to 100 scale, 0 no effect, 100 complete control
[31] = 500 g ai/ha, postemergence, 0 to 100 scale (0 no effect, 100 complete control)
[32] = Postemergence, 125 g ai/ha, 0 to 100 scale (0 no effect, 100 complete control)
[33] = 500 g ai/ha, visual rating after 10 days, 0 to 100 scale (0 no effect, 100 complete control)
[34] = Test C, 125 g ai/ha, 0 to 100 scale (0 no effect, 100 complete control)
[35] = 125 g ai/ha, postemergence, 0 to 100 scale, 0 no effect, 100 complete control
[36] = Postemergence, 500 g ai/ha, visual 0 to 100 scale (0 no effect, 100 complete control)

COC[C@H]1CN(C(=O)c2cc(-n3cnc(C4CCC4)n3)cc3c2OCCO3)c2cccc(Cl)c2O1 [Compound 380]
20: Plant response rating, Barnyardgrass [1, 30] | Plant response rating, Oat, Wild [6, 30] | Plant response rating, Barnyardgrass [12, 32] | Plant response rating, Blackgrass [13, 32] | Plant response rating, Foxtail, Green [15, 32] | Plant response rating, Wheat [22, 31]
10: Wheat plant response rating [11, 29] | Plant response rating, Corn [14, 32] | Plant response rating, Wheat [22, 32] | Plant response rating, Rice (Flood) [27]
80: Barnyardgrass plant response rating [1, 29] | Ryegrass, Italian plant response rating [9, 29] | Plant response rating, Foxtail, Green [15, 31]
40: Oat, Wild plant response rating [6, 29] | Plant response rating, Ryegrass, Italian [20, 32] | Plant response rating, Sedge, Umbrella (Flood) [28]
50: Corn plant response rating [3, 29] | Plant response rating, Foxtail, Green [4, 30] | Plant response rating, Soybean [10, 30] | Plant response rating, Barnyardgrass [12, 31] | Plant response rating, Corn [14, 31]
55: Plant response rating, Barnyardgrass (Flood) [25]
70: Plant response rating, Ragweed [8, 30] | Plant response rating, Ryegrass, Italian [9, 30] | Plant response rating, Blackgrass [13, 31]
30: Blackgrass plant response rating [2, 29] | Plant response rating, Ducksalad (Flood) [26]
0: Plant response rating, Blackgrass [2, 30] | Plant response rating, Corn [3, 30] | Plant response rating, Kochia [5, 30] | Plant response rating, Wheat [11, 30] | Plant response rating, Oat, Wild [17, 31] | Plant response rating, Oat, Wild [17, 32]
90: Kochia plant response rating [5, 29] | Ragweed plant response rating [8, 29] | Soybean plant response rating [10, 29] | Plant response rating, Pigweed, Palmer [18, 32] | Plant response rating, Ragweed [19, 32]
60: Plant response rating, Ryegrass, Italian [20, 31] | Plant response rating, Horseweed [24, 31] | Plant response rating, Horseweed [24, 32]
100: Foxtail, Green plant response rating [4, 29] | Pigweed, Palmer plant response rating [7, 29] | Plant response rating, Pigweed, Palmer [7, 30] | Plant response rating, Kochia [16, 31] | Plant response rating, Kochia [16, 32] | Plant response rating, Pigweed, Palmer [18, 31] | Plant response rating, Ragweed [19, 31] | Plant response rating, Soybean [21, 31] | Plant response rating, Soybean [21, 32] | Plant response rating, Galium [23, 31] | Plant response rating, Galium [23, 32]

Cc1c(F)cc(-n2cnc(C(C)C)n2)cc1C(=O)N1C[C@H](C)Oc2c(Cl)cccc21 [Compound 151]
80: Plant response rating, Ragweed [8, 33] | Ryegrass, Italian plant response rating [9, 34] | Plant response rating, Wheat [11, 33] | Wheat plant response rating [11, 34] | Plant response rating, Blackgrass [13, 35] | Plant response rating, Blackgrass [13, 36] | Plant response rating, Foxtail, Green [15, 35] | Plant response rating, Ryegrass, Italian [20, 36] | Plant response rating, Horseweed [24, 36]
30: Oat, Wild plant response rating [6, 34] | Ragweed plant response rating [8, 34] | Plant response rating, Wheat [22, 36]
20: Corn plant response rating [3, 34] | Plant response rating, Oat, Wild [17, 35] | Plant response rating, Wheat [22, 35]
90: Barnyardgrass plant response rating ([1]; 125 g ai/ha, 0 to 100 scale (0 no effect, 100 complete control)) | Plant response rating, Blackgrass [2, 33] | Plant response rating, Oat, Wild [6, 33] | Plant response rating, Ryegrass, Italian [9, 33] | Plant response rating, Soybean [10, 33] | Plant response rating, Corn [14, 36] | Plant response rating, Foxtail, Green [15, 36] | Plant response rating, Kochia [16, 35] | Plant response rating, Pigweed, Palmer [18, 35] | Plant response rating, Ragweed [19, 36]
75: Plant response rating, Sedge, Umbrella (Flood) [28]
40: Plant response rating, Horseweed [24, 35] | Plant response rating, Barnyardgrass (Flood) [25]
45: Plant response rating, Rice (Flood) [27]
70: Plant response rating, Barnyardgrass [12, 35] | Plant response rating, Ragweed [19, 35]
50: Blackgrass plant response rating [2, 34] | Plant response rating, Corn [3, 33] | Soybean plant response rating [10, 34] | Plant response rating, Oat, Wild [17, 36] | Plant response rating, Ducksalad (Flood) [26]
60: Plant response rating, Corn [14, 35] | Plant response rating, Ryegrass, Italian [20, 35]
100: Plant response rating, Barnyardgrass [1, 33] | Plant response rating, Foxtail, Green [4, 33] | Foxtail, Green plant response rating [4, 34] | Plant response rating, Kochia [5, 33] | Kochia plant response rating [5, 34] | Plant response rating, Pigweed, Palmer [7, 33] | Pigweed, Palmer plant response rating [7, 34] | Plant response rating, Barnyardgrass [12, 36] | Plant response rating, Kochia [16, 36] | Plant response rating, Pigweed, Palmer [18, 36] | Plant response rating, Soybean [21, 35] | Plant response rating, Soybean [21, 36] | Plant response rating, Galium [23, 35] | Plant response rating, Galium [23, 36]

COc1ccc(-n2cnc(C(C)C)n2)cc1C(=O)N1C[C@H](C)Oc2c(F)cccc21 [Compound 269]
60: Oat, Wild plant response rating [6, 34]
45: Plant response rating, Barnyardgrass (Flood) [25]
90: Plant response rating, Blackgrass [2, 33] | Blackgrass plant response rating [2, 34] | Corn plant response rating [3, 29] | Kochia plant response rating [5, 34] | Oat, Wild plant response rating [6, 29] | Soybean plant response rating [10, 29] | Soybean plant response rating [10, 34] | Plant response rating, Blackgrass [13, 36] | Plant response rating, Foxtail, Green [15, 35] | Plant response rating, Foxtail, Green [15, 36] | Plant response rating, Pigweed, Palmer [18, 35] | Plant response rating, Galium [23, 35] | Plant response rating, Horseweed [24, 36]
80: Plant response rating, Barnyardgrass [12, 35] | Plant response rating, Blackgrass [13, 35] | Plant response rating, Corn [14, 35] | Plant response rating, Kochia [16, 35] | Plant response rating, Oat, Wild [17, 35] | Plant response rating, Wheat [22, 35]
98: Plant response rating, Sedge, Umbrella (Flood) [28]
20: Corn plant response rating [3, 34] | Plant response rating, Horseweed [24, 35]
100: Plant response rating, Barnyardgrass [1, 33] | Barnyardgrass plant response rating [1, 34] | Foxtail, Green plant response rating [4, 29] | Foxtail, Green plant response rating [4, 34] | Kochia plant response rating [5, 29] | Pigweed, Palmer plant response rating [7, 29] | Pigweed, Palmer plant response rating [7, 34] | Ragweed plant response rating [8, 29] | Ragweed plant response rating [8, 34] | Ryegrass, Italian plant response rating [9, 29] | Ryegrass, Italian plant response rating [9, 34] | Wheat plant response rating [11, 29] | Wheat plant response rating [11, 34] | Plant response rating, Barnyardgrass [12, 36] | Plant response rating, Corn [14, 36] | Plant response rating, Ryegrass, Italian [20, 35] | Plant response rating, Soybean [21, 35] | Plant response rating, Galium [23, 36] | Plant response rating, Ducksalad (Flood) [26]
70: Plant response rating, Ragweed [19, 35]
10: Plant response rating, Rice (Flood) [27]
